ChEMBL document CHEMBL3997817, “Filamenting temperature-sensitive mutant Z inhibitors from Glycyrrhiza glabra and their inhibitory mode of action” (Bioorg Med Chem Lett, 2017)
Values after ≈ are worked out from the molar mass of the structure shown.

How the values were obtained:
Escherichia coli [1] = assay: Inhibition of Escherichia coli N-terminal hexahistidine-tagged FtsZ GTPase activity expressed in Escherichia coli BL21 (DE3) assessed as residual activity at 200 uM after 1 hr relative to control
Bacillus subtilis [2] = assay: Antibacterial activity against Bacillus subtilis NBRC 3134 after overnight incubation by MTT assay; format: functional
Bacillus subtilis [3] = assay: Inhibition of Bacillus subtilis N-terminal hexahistidine-tagged FtsZ GTPase activity expressed in Escherichia coli BL21 (DE3) at 100 uM after 1 hr relative to control
Escherichia coli [4] = assay: Inhibition of Escherichia coli N-terminal hexahistidine-tagged FtsZ GTPase activity expressed in Escherichia coli BL21 (DE3) assessed as residual activity at 100 uM after 1 hr relative to control
Bacillus subtilis [5] = assay: Inhibition of Bacillus subtilis N-terminal hexahistidine-tagged FtsZ GTPase activity expressed in Escherichia coli BL21 (DE3) assessed as residual activity at 200 uM after 1 hr relative to control
Bacillus subtilis [6] = assay: Inhibition of Bacillus subtilis N-terminal hexahistidine-tagged FtsZ GTPase activity expressed in Escherichia coli BL21 (DE3) assessed as residual activity at 20 uM after 1 hr relative to control
Escherichia coli [7] = assay: Inhibition of Escherichia coli N-terminal hexahistidine-tagged FtsZ GTPase activity expressed in Escherichia coli BL21 (DE3) assessed as residual activity at 20 uM after 1 hr relative to control
Bacillus subtilis [8] = assay: Inhibition of Bacillus subtilis N-terminal hexahistidine-tagged FtsZ GTPase activity expressed in Escherichia coli BL21 (DE3) assessed as residual activity at 100 uM after 1 hr relative to control
[9] = Uncompetitive inhibition of Bacillus subtilis N-terminal hexahistidine-tagged FtsZ GTPase activity expressed in Escherichia coli BL21 (DE3) after 1 hr by Lineweaver-Burk plot analysis
Bacillus subtilis [10] = assay: Inhibition of Bacillus subtilis N-terminal hexahistidine-tagged FtsZ V307R mutant GTPase activity expressed in Escherichia coli BL21 (DE3) after 1 hr relative to wild type protein; settings: concentration not given here

For `COc1cc2oc(=O)c(-c3ccc(O)cc3O)cc2c(OC)c1CC=C(C)C` [GLYCYRIN], the Activity (Escherichia coli [1]) was 88.6%, the MIC (Bacillus subtilis [2]) was 40 µM (≈ 15.3 µg/mL) and the fold change (FC) (Bacillus subtilis [3]) was 0.8 to 7.7. For the same compound, the Activity (Escherichia coli [4]) was 87.8%, the Activity (Bacillus subtilis [5]) was 17% and the Activity (Bacillus subtilis [6]) was 74.4%. For the same compound, the Activity (Escherichia coli [7]) was 103%, the Activity (Bacillus subtilis [8]) was 17.5% and the Ki [9] was 42.6 µM. It also gave an inhibition (Bacillus subtilis [10]) of 60%.
With `CC(C)=CCc1cc(-c2oc3cc(O)cc(O)c3c(=O)c2O)ccc1O` [ISOLICOFLAVONOL] the MIC (Bacillus subtilis [2]) was 40 µM (≈ 14.2 µg/mL), the fold change (FC) (Bacillus subtilis [3]) was 0.8 to 7.7 and the Activity (Escherichia coli [4]) was 61.2%. The Activity (Bacillus subtilis [5]) was 7.7%, the Activity (Bacillus subtilis [6]) was 48.5% and the Activity (Escherichia coli [7]) was 95.2%. For the same compound, the Activity (Bacillus subtilis [8]) was 10.1%, the Ki [9] was 37.7 µM and the inhibition (Bacillus subtilis [10]) was 60%.
In the case of `NC[C@H]1O[C@H](O[C@H]2[C@H](O)[C@@H](O[C@H]3O[C@H](CO)[C@@H](O)[C@H](N)[C@H]3O)[C@H](N)C[C@@H]2N)[C@H](O)[C@@H](O)[C@@H]1O` [KANAMYCIN], the MIC (Bacillus subtilis [2]) is reported as under 20 µM.
Compound `COc1cc2oc(-c3ccc(O)cc3O)cc2c(OC)c1CC=C(C)C` has an MIC (Bacillus subtilis [2]) of 5 µM (≈ 1.77 µg/mL), a fold change (FC) (Bacillus subtilis [3]) of 0.8 to 7.7 and an Activity (Escherichia coli [4]) of 63.2%. The Activity (Bacillus subtilis [5]) was 10.1%, the Activity (Bacillus subtilis [6]) was 37.4% and the Activity (Escherichia coli [7]) was 88.4%. The Activity (Bacillus subtilis [8]) was 10.1%, the Ki [9] was 30.9 µM and the inhibition (Bacillus subtilis [10]) was 60%.
`COc1c(CC=C(C)C)c(O)cc2oc(-c3ccc(O)cc3O)cc12` gave a fold change (FC) (Bacillus subtilis [3]) of 0.8 to 7.7, an Activity (Escherichia coli [4]) of 73.5% and an Activity (Bacillus subtilis [5]) of 35.3%. For the same compound, the Activity (Bacillus subtilis [6]) was 98.1%, the Activity (Escherichia coli [7]) was 99.4% and the Activity (Bacillus subtilis [8]) was 55.5%.
`COc1c(CC=C(C)C)c(O)cc(O)c1-c1coc2cc(O)ccc2c1=O` showed an Activity (Escherichia coli [1]) of 106%, a fold change (FC) (Bacillus subtilis [3]) of 0.8 to 7.7 and an Activity (Escherichia coli [4]) of 105%. The Activity (Bacillus subtilis [5]) was 90.2%, the Activity (Bacillus subtilis [6]) was 97.4% and the Activity (Escherichia coli [7]) was 101%. It also gave an Activity (Bacillus subtilis [8]) of 96.8%.
Work on `COc1c(CC=C(C)C)c(O)cc2oc(=O)c(-c3ccc(O)cc3O)cc12` yielded an Activity (Escherichia coli [1]) of 67.3%, a fold change (FC) (Bacillus subtilis [3]) of 0.8 to 7.7 and an Activity (Escherichia coli [4]) of 85.6%. It also gave an Activity (Bacillus subtilis [5]) of 30.4%, an Activity (Bacillus subtilis [6]) of 87.8% and an Activity (Escherichia coli [7]) of 95.9%. The Activity (Bacillus subtilis [8]) was 52.3%.
With `CCN(CC)CCNc1nc(/C=C/c2ccc(Cl)cc2)nc2cc3ccccc3cc12` the Activity (Escherichia coli [1]) was 7.7%, the Activity (Escherichia coli [4]) was 12% and the Activity (Bacillus subtilis [5]) was 8%. It also gave an Activity (Bacillus subtilis [6]) of 75.3%, an Activity (Escherichia coli [7]) of 57.7% and an Activity (Bacillus subtilis [8]) of 12.6%.
Work on `CC(C)=CCc1cc(-c2coc3cc(O)cc(O)c3c2=O)cc(O)c1O` yielded an Activity (Escherichia coli [1]) of 93.1%, a fold change (FC) (Bacillus subtilis [3]) of 0.8 to 7.7 and an Activity (Escherichia coli [4]) of 98.3%. For the same compound, the Activity (Bacillus subtilis [5]) was 63.4%, the Activity (Bacillus subtilis [6]) was 89.1% and the Activity (Escherichia coli [7]) was 97.7%. The Activity (Bacillus subtilis [8]) was 85.1%.
